# pIC50: −log10 of the molar value.
# How the values were obtained:
# LoVo = test: Cell based screen for inhibitors of Raf and/or Mek kinase (SRB), LoVo; parameters: species or system human; details: Homo sapiens, 96 h, LoVo cells, four days incubation, (a)/(b)/(c) = average of two/three/five runs
# Procedure: Cell Based Screen for Inhibitors of Raf and/or Mek Kinase. Materials
# Cell Lines: Human adenocarcinoma cell line LoVo, known to be growth inhibited by low nM concentrations of a reference standard inhibitor of Ras and human adenocarcinoma cell line CaCo-2, known to be growth resistant to the same reference compound.
# Cell Media: RPMI 1640 with 10% Fetal Bovine Serum supplemented with L-glutamine and Penicillin/Streptomycin.
# Cells are plated at 2000 cells per well for cell line LoVo and 1500 cells for cell line CaCo-2 in 96 well plates. Cells are plated in media (200 μl) and allowed to adhere overnight at 37° C. At 24 hours post plating, compounds are added directly at a volume of 0.5 μl. For the qualitative screen (compounds screened at 25 μM) compound is added directly to cells. For the quantitative screen, compound is first diluted in DMSO to generate concentrations of compound or reference standard of: 1, 5, 10 and 25 μM. It is advisable to make the dilutions in an identical 96 well plate so that compounds can be added using a multichannel micropipettor set at 0.5 μl. The cells are then incubated for four days after which the media is removed using a 12 well manifold by first tipping the plate forward at a 45 degree angle and then inserting the manifold in an upright orientation to prevent the tips of the manifold from disturbing cells at the bottom of the plate. 200 μl of normal saline is then added to each well using an 8 well multichannel pipettor, followed by the careful addition of 50 μl of 50% TCA. The plates are then incubated for 2 hours at 4° C., after which the supernatant is removed using the same technique as above and the plated cells are washed twice with 200 μl water. The plates are then air dried and 50 μl of SRB stock solution is carefully added so that the entire bottom of each well is covered. This again can be done using an 8 well multichannel pipettor. The SRB is incubated with fixed cells for 15 minutes at room temperature after which the SRB is removed with the manifold as described above and the plates washed twice with 350 μl of 1% acetic acid per well each time. The plates are then air dried after which the bound SRB is released from protein by the addition of 200 μl of Tris base. Resolubilizing the SRB is aided by placing the plates on a rotator for 15-30 minutes. The absorbance of each well is determined at 550 or 562 nm using a microtiter plate reader.
# Each compound or dilution thereof is performed in triplicate. Outliers are identified by visual inspection of the data. Each plate should have a “0” control (vehicle only).
# Quantitative Assay: A standard curve is constructed by plotting the concentration of compound against the average absorbance calculated at that concentration. A curve is plotted and the concentration at which the curve passes through the 50% the absorbance mark seen in the “0” control well is the IC50 calculated for that compound. Multiple entries for a given compound indicate that it is tested multiple times.
# [1] = target: T1, recombinant human MEK 1 (MAPKK) / human ERK2 (MAPK) (Homo sapiens, UniProt P28482+Q02750); test: Mitogen Activated Protein Kinase (MAPK) test procedure (Mek-Erk coupled); format: biochemical; details: MEK1-activated ERK2, 33P ATP, peptide substrate
# T1 construct: GST; made in house
# Procedure: Mitogen Activated Protein Kinase (MAPK) Test Procedure
# To evaluate inhibitors of the MAP (mitogen activated protein) kinase a two component coupled standard pharmacological test procedure, which measures phosphorylation of a serine/threonine residue in an appropriate sequence in the substrate in the presence and absence of a putative inhibitor, is used. Recombinant human MEK 1 (MAPKK) is first used to activate recombinant human ERK2 (MAPK) and the activated MAPK (ERK) is incubated with substrate (myelin basic protein peptide (MBPP) or Myc peptide) in the presence of ATP, Mg^+2 and radiolabeled ^33P ATP. The phosphorylated peptide is captured on a P 81 phosphocellulose filter (paper filter or embedded in microtiter plate) ished and counted by scintillation methods.
# The peptide substrates used in the assay are MBPP, peptide substrate (APRTPGGRR), or synthetic Myc substrate, (KKFELLPTPPLSPSRR•5 TFA). […]
# The reaction is run as follows in 50 mM Tris kinase buffer, pH 7.4 in a reaction volume of 50 ul. […] The filters are briefly air dried before addition of scintillant and samples are counted in the appropriate scintillation counter set up for reading ^33P isotope. […]
# The raw data is captured as counts per minute (cpm). […] Mean cpm data is tabulated by group and % inhibition by a test compound is calculated as (corrected cpm control−corrected·cpm sample/control)×100=% inhibition). […]
# T1 sequence (P28482 whole entry): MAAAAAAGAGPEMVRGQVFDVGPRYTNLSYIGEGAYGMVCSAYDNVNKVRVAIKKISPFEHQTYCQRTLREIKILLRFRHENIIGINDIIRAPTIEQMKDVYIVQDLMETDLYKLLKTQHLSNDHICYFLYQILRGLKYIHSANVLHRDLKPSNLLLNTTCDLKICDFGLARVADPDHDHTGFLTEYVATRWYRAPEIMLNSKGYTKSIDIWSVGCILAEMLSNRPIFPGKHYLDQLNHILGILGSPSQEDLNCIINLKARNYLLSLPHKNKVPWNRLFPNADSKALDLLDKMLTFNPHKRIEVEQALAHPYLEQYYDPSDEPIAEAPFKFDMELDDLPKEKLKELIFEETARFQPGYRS
# T1 sequence (Q02750 whole entry): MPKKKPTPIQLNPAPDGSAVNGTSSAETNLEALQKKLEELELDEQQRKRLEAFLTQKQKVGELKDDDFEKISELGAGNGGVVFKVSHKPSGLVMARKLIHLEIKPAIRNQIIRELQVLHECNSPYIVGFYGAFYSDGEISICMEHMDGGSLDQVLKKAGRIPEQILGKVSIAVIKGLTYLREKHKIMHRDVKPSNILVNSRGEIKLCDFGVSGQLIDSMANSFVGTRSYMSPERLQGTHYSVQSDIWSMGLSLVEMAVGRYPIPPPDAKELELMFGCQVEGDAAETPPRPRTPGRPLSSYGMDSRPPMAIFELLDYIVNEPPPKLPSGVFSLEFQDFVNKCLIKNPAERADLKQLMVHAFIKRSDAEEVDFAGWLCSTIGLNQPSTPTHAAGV
compound,measurement,setting,value
"COc1cc2c(Nc3ccc(Oc4ccccc4)cc3)c(C#N)cnc2cc1OCCN1CCC(N2CCCCC2)CC1 [Example 32, 7-(2-[1,4′]Bipiperidinyl-1′-yl-ethoxy)-6-methoxy-4-(4-phenoxy-phenylamino)-quinoline-3-carbonitrile]",pIC50,LoVo,6.05
same,melting point,,141 °C (dec.)
same,pIC50,[1],7.35
